This is an account of results in patent publication US9580418B2, “Bicyclic aromatic carboxamide compounds useful as Pim kinase inhibitors” (Incyte Corporation, priority 2014, dated 2017).

In one test the test system is pBAD in KMS.12.BM cells. Description: Pim pBAD signaling assay in KMS.12.BM cells (Example B). In kind it is cell-based. To be noted: Homo sapiens, 2.5 h incubation, pBAD ELISA.
For another test, the target named is Pim-2 (Homo sapiens (Human), UniProt Q9P1W9). Description: Pim-2 kinase assay (Pim enzyme assays, Example A). In kind it is biochemical. To be noted: 1 mM ATP, CREBtide peptide substrate; read-out: PIM2 IC50.
Chain of Pim-2 (Q9P1W9 whole entry): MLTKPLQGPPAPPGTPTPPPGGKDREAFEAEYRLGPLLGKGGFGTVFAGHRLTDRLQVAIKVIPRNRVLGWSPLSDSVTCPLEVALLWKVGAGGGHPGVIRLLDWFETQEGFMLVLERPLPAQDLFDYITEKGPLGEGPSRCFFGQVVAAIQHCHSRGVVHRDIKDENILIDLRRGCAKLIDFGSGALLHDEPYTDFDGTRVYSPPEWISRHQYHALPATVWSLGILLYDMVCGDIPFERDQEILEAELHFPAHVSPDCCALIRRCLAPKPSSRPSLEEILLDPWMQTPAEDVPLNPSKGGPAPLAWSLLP
The next test addresses Pim-1 (Homo sapiens (Human), UniProt P11309). Description: Pim-1 kinase assay (Pim enzyme assays, Example A). It is filed as biochemical. To be noted: 1 mM ATP, BAD peptide substrate; read-out: PIM1 IC50.
The next test deals with Pim-3 (Homo sapiens (Human), UniProt Q86V86). Description: Pim-3 kinase assay (Pim enzyme assays, Example A). It is filed as biochemical. To be noted: 1 mM ATP, BAD peptide substrate; read-out: PIM3 IC50.

Molecules are shown by their SMILES. Where only a bound is given, the exact number is not on record here.

Chain of Pim-1 (P11309 whole entry): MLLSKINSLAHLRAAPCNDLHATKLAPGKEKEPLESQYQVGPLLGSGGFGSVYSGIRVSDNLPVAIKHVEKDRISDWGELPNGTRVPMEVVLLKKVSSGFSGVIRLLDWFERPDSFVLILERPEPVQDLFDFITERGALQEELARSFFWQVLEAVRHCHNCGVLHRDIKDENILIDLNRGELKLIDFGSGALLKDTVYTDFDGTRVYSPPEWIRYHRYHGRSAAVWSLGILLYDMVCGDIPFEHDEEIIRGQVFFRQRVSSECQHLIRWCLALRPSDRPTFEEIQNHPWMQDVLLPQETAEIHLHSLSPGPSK

For orientation: IC50 means the concentration that gives 50% inhibition. Consider `C[C@@H]1C[C@H](N)CN(c2ccncc2NC(=O)c2ccc3ccc(-c4ccccc4C#N)cc3n2)C1` [Example 49, N-{4-[(3S,5R)-3-Amino-5-methylpiperidin-1-yl]pyridin-3-yl}-7-(2-cyanophenyl)quinoline-2-carboxamide], for which the IC50 in the test with pBAD in KMS.12.BM cells is no more than 50 nM; on Pim-2 it was no more than 100 nM; at Pim-1, no more than 10 nM; on Pim-3, no more than 10 nM.

For `C[C@@H]1C[C@H](N)CN(c2ccncc2NC(=O)c2ccc3ccc(N4CCC(O)CC4)cc3n2)C1` [Example 50, N-(4-((3S,5R)-3-Amino-5-methylpiperidin-1-yl)pyridin-3-yl)-7-(4-hydroxypiperidin-1-yl)quinoline-2-carboxamide], the IC50 is no more than 50 nM in the test with pBAD in KMS.12.BM cells, no more than 100 nM on Pim-2, no more than 10 nM at Pim-1 and no more than 10 nM at Pim-3.

As to `N#Cc1ccccc1-c1cnc2ccc(C(=O)Nc3cnccc3N3C[C@@H](N)C[C@@H](C(F)(F)F)C3)nc2c1` [Example 51, N-{4-[(3S,5R)-3-Amino-5-(trifluoromethyl)piperidin-1-yl]pyridin-3-yl}-7-(2-cyanophenyl)-1,5-naphthyridine-2-carboxamide], the IC50 with pBAD in KMS.12.BM cells was no more than 50 nM; on Pim-2, no more than 100 nM; at Pim-1, no more than 10 nM; at Pim-3, no more than 10 nM.

With `C[C@H]1CN(c2ccncc2NC(=O)c2ccc3ccc(-c4ccc(OC5CCOCC5)nc4)cc3n2)C[C@@H](N)[C@@H]1O` [Example 52, N-{4-[(3R,4R,5S)-3-Amino-4-hydroxy-5-methylpiperidin-1-yl]pyridin-3-yl}-7-[6-(tetrahydro-2H-pyran-4-yloxy)pyridin-3-yl]quinoline-2-carboxamide], the IC50 was 50 to 250 nM in the test on pBAD in KMS.12.BM cells, no more than 100 nM on Pim-2, no more than 10 nM on Pim-1 and no more than 10 nM on Pim-3.
